# Test results published in US9624234B2, “Heterocyclic compounds and methods for their use” (Novartis AG, priority 2012, dated 2017).
# Target: AT2 receptor (Homo sapiens (Human), UniProt P50052)
# Test: AT2 receptor binding ([125I]-CGP42112A radioligand, HEK293/AT2 receptor membranes)
# Details: HEK293/AT2 receptor transient transfected cell membranes, RT 1.5 hrs
# Experimental: • 1. Trypsin-EDTA (for preparation of 100 mL) • Trypsin 0.25 g • 2% EDTA 2 mL • PBS 98 mL • Dissolve trypsin in 2% EDTA and PBS completely; sterilize the solution by passing through a […] membrane filter; store at 4° C. • 2. DMEM medium (for preparation of 1 L) • The powder was dissolved into 950 mL of distilled water with gentle stirring until the solution becomes clear. • Add NaHCO3 1.176 g for DMEM medium. • Adjust pH of medium to 0.2-0.3 below final working pH using 1 M NaOH or 1 M HCl. Add slowly with stirring. • Dilute to 1 liter with ddH2O. • Sterilize the medium immediately by filtration. • Store at 4° C. • 3. TE buffer • 20 mM Tris-HCl, pH 7.4, • 5 mM EDTA • 4. Binding Assay Buffer • 50 mM Hepes, pH 7.4 • 5 mM MgCl2 • 1 mM CaCl2 • 0.2% BSA • 5. Wash Buffer • 50 mM Hepes, pH 7.4 Procedures for HEK293/AT2 Receptor Transient Cell Transfection • Cells were plated into 150 mm dish at 50% density for transient transfection. Cells were ready for transfection after overnight incubation (the confluence reaches around 80%). • 75 μL Lipofectamine™2000 diluted in 6.25 mL OptiMEM I Reduced Serum Medium, was mixed gently, and incubated at room temperature for 5 minutes. 50 μg expression plasmid DNA diluted in 6.25 mL OptiMEM I Reduced Serum Medium without serum was mixed gently. • After the 5 minute incubation, the diluted DNA was combined with the diluted Lipofectamine™2000 (total volume is 12.5 mL). The mixture was mixed gently and incubated for 30 minutes at room temperature to allow the DNA-Lipofectamine™2000 complexes to form. • The 12.5 mL DNA-Lipofectamine™2000 complexes were added into the 150 mm dish and mixed gently by rocking the dish back and forth. • The cells were incubated at 37° C. with 5% CO2 for 48 hours. • Cells were collected and stored frozen at −80° C. Procedures for HEK293/AT2 Receptor Cell Membrane Preparation • Frozen HEK293/AT2 receptor (transient transfected) cells were homogenized in ice cold TE buffer for 10 s. • The homogenate was centrifuged at 25,000 g for 30 minutes. • The pellet was resuspended in ice cold tissue buffer. • Protein concentrations were determined using Bradford assay method with BSA as standard. • The membrane protein was frozen under −80° C. Compound Preparation
# Solutions of all compounds were prepared by microplate liquid handling equipment such as Janus or Precision 2000. Compounds, dissolved in DMSO were stored in a Freezer. Compounds were prepared from 30 mM in 100% DMSO.
# Step 1: Dose Plate Preparation (96 Well Plate)
# • Add the 3 μL [30 mM] compound stock to column 1 on the plate. • Add 15 μL of 100% DMSO to column 1. • Add 10.81 μL of 100% DMSO to column 2-12. • Transfer 5 μL from column 1 into column 2 (half log dilution). • Transfer 5 μL from column 2 into column 3 (half log dilution). • Transfer 5 μL from column 3 into column 4 (half log dilution). • Transfer 5 μL from column 4 into column 5 (half log dilution). • Transfer 5 μL from column 5 into column 6 (half log dilution). • Transfer 5 μL from column 6 into column 7 (half log dilution). • Transfer 5 μL from column 7 into column 8 (half log dilution). • Transfer 5 μL from column 8 into column 9 (half log dilution). • Transfer 5 μL from column 9 into column 10 (half log dilution) • Transfer 5 μL from column 10 into column 11 (half log dilution) • Transfer 5 μL from column 11 into column 12 (half log dilution). All the compounds were diluted using Precision 2000 microplate liquid handling equipment. The top concentration of compound was 5 mM with 100% DMSO. Step 2: Working Plate Preparation (96 Well Plate) • Compounds were diluted 50-fold with buffer. • 49 μL buffer was added to the well of 96 well plate. • 1 μL compound solution from dose plate was transferred to the corresponding well of working plate. • The top concentration of compound was 100 μM with 2% DMSO. Step 3: Assay Plate Preparation (96 Well Plate)
# 15 μL of compound solution was transferred from each well of working plate to the well of assay plate by Janus.
# AT2 receptor, sequence (P50052 whole entry, species assumed): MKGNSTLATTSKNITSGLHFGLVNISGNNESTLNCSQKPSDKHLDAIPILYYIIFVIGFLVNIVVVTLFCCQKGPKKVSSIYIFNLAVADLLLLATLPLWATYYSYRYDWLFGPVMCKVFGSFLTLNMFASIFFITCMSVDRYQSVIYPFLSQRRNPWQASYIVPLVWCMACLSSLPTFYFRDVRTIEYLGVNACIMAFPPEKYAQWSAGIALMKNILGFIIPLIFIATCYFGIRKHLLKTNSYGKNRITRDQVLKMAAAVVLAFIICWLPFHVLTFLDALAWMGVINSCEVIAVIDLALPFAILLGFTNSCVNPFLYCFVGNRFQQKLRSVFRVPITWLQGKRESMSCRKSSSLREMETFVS
row,Structure (SMILES),IC50
1,O=C(O)[C@@H]1Cc2c(c3ccccc3n2Cc2ccccc2)CN1C(=O)C(c1ccccc1)c1ccccc1 [Compound 1],210 nM
2,"O=C(O)[C@@H]1Cc2c(ccc3c2Oc2ccccc2O3)CN1C(=O)C(c1ccccc1)c1ccccc1 [Compound 9, (S)-3-(2,2-diphenylacetyl)-1,2,3,4-tetrahydrobenzo[5,6][1,4]dioxino[2,3-f]isoquinoline-2-carboxylic acid]",159 nM
3,"O=C(O)[C@@H]1CC(OCc2ccccc2)CCN1C(=O)C(c1ccccc1)c1ccccc1 (stereo partly drawn) [Compound 26, (2S)-4-(benzyloxy)-1-(2,2-diphenylacetyl)piperidine-2-carboxylic acid]",218 nM
4,"CN(CCCc1ccccc1)[C@@H]1CCN(C(=O)C(c2ccccc2)c2ccccc2)[C@H](C(=O)O)C1 [Compound 31, (2S,4R)-1-(2,2-diphenylacetyl)-4-(methyl(phenylpropyl)amino)piperidine-2-carboxylic acid]",5090 nM
5,CN(CC#Cc1ccccc1)[C@@H]1CCN(C(=O)C(c2ccccc2)c2ccccc2)[C@H](C(=O)O)C1 [Compound 32],108 nM
6,"CN(CC#Cc1ccccc1)[C@H]1CCN(C(=O)C(c2ccccc2)c2ccccc2)[C@H](C(=O)O)C1 [Compound 33, (2S,4S)-1-(2,2-diphenylacetyl)-4-(methyl(3-phenylprop-2-yn-1yl)amino)piperidine-2-carboxylic acid]",2710 nM
7,"CN(CCc1ccccc1)[C@@H]1CCN(C(=O)C(c2ccccc2)c2ccccc2)[C@H](C(=O)O)C1 [Compound 34, (2S,4R)-1-(2,2-diphenylacetyl)-4-(methyl(3-phenethyl)amino)piperidine-2-carboxylic acid]",918 nM
8,"CN(CCc1ccccc1)[C@H]1CCN(C(=O)C(c2ccccc2)c2ccccc2)[C@H](C(=O)O)C1 [Compound 35, (2S,4S)-1-(2,2-diphenylacetyl)-4-(methyl(3-phenethyl)amino)piperidine-2-carboxylic acid]",101 nM
9,"CN(Cc1ccccc1)[C@@H]1CCN(C(=O)C(c2ccccc2)c2ccccc2)[C@H](C(=O)O)C1 [Compound 38, (2S,4R)-4-(benzyl(methyl)amino)-1-(2,2-diphenylacetyl)piperidine-2-carboxylic acid]",854 nM
10,"O=C(O)[C@@H]1C[C@H](N2CCC[C@H](c3ccccc3)C2)CCN1C(=O)C(c1ccccc1)c1ccccc1 [Compound 55, (2′S,3R,4′R)-1′-(2,2-diphenylacetyl)-3-phenyl-[1,4′-bipiperidine]-2′-carboxylic acid]",294 nM
11,"O=C(O)[C@@H]1C[C@@H](N2CCC[C@H](c3ccccc3)C2)CCN1C(=O)C(c1ccccc1)c1ccccc1 [Compound 56, (2′S,3R,4′R)-1-(2,2-diphenylacetyl)-3-phenyl-[1,4′-bipiperidine]-2′-carboxylic acid]",111 nM
12,"O=C(O)[C@@H]1C[C@H](N2CCC[C@@H](c3ccccc3)C2)CCN1C(=O)C(c1ccccc1)c1ccccc1 [Compound 57, (2′S,3S,4′R)-1′-(2,2-diphenylacetyl)-3-phenyl-[1,4′-bipiperidine]-2′-carboxylic acid]",1440 nM
13,"O=C(O)[C@@H]1C[C@@H](N2CCC[C@@H](c3ccccc3)C2)CCN1C(=O)C(c1ccccc1)c1ccccc1 [Compound 58, (2′S,3S,4′S)-1′-(2,2-diphenylacetyl)-3-phenyl-[1,4′-bipiperidine]-2′-carboxylic acid]",170 nM

# Results, then the molecule that gave them:
row,IC50,Structure (SMILES)
1,648 nM,"CN(Cc1ccccc1)[C@H]1CCN(C(=O)C(c2ccccc2)c2ccccc2)[C@H](C(=O)O)C1 [Compound 39, (2S,4S)-4-(benzyl(methyl)amino)-1-(2,2-diphenylacetyl)piperidine-2-carboxylic acid]"
2,228 nM,"O=C(O)[C@@H]1C[C@H](OCC#Cc2ccccc2)CCN1C(=O)C(c1ccccc1)c1ccccc1 [Compound 40, (2S,4R)-1-(2,2-diphenylacetyl)-4-((3-phenylprop-2-yn-yl)oxy)piperidine-2-carboxylic acid]"
3,101 nM,"O=C(O)[C@@H]1C[C@H](OCCCc2ccccc2)CCN1C(=O)C(c1ccccc1)c1ccccc1 [Compound 41, (2S,4R)-1-(2,2-diphenylacetyl)-4-((3-phenylpropyl)oxy)piperidine-2-carboxylic acid]"
4,852 nM,CC#CCN(C)[C@@H]1CCN(C(=O)C(c2ccccc2)c2ccccc2)[C@H](C(=O)O)C1 [Compound 42]
5,2050 nM,CC#CCN(C)[C@H]1CCN(C(=O)C(c2ccccc2)c2ccccc2)[C@H](C(=O)O)C1 [Compound 43]
6,55.9 nM,CN(CC#Cc1ccc(F)cc1)[C@@H]1CCN(C(=O)C(c2ccccc2)c2ccccc2)[C@H](C(=O)O)C1 [Compound 46]
7,1040 nM,"CN(CC#Cc1ccc(F)cc1)[C@H]1CCN(C(=O)C(c2ccccc2)c2ccccc2)[C@H](C(=O)O)C1 [Compound 47, (2S,4S)-1-(2,2-diphenylacetyl)-4-((3-(4-fluorophenyl)prop-2-yn-1-yl)(methyl)amino)piperidine-2-carboxylic acid]"
8,33.9 nM,"CN(CC#CC(C)(C)C)[C@@H]1CCN(C(=O)C(c2ccccc2)c2ccccc2)[C@H](C(=O)O)C1 [Compound 54, (2S,4R)-4-((4,4-dimethylpent-2-yn-1-yl)(methyl)amino)-1-(2,2-diphenylacetyl)piperidine-2-carboxylic acid]"
